From patent publication US20210379199A1, “COPPER NANOCLUSTERS, COMPOSITION COMPRISING THE SAME, AND TREATMENT OF NEURODEGENERATIVE DISEASES” (Shenzhen Profound-View Pharma Tech Co., Ltd, priority 2019, published 2021)

Key:
SH-sy5y cells = assay: MPP+ induced PD cells (SH-sy5y) model, CCK-8 cell viability; conditions: 1 mM MPP+, ligand 20 ppm, 24 h
Experimental: 1) Take SH-sy5y cells in the logarithmic growth phase. Dilute them with complete medium to form a cell suspension with a cell density of 5×10^4/mL. Plate 200 μl of the cell suspension into each well of a 96-well plate and cultivate in an environment of 37° C. and 5% CO2 in an incubator. The sample is added after the cells are attached.
2) Add 100 μL of ligand-modified CuNCs samples or ligand-modified copper nanoparticles samples with different particle sizes, which are prepared using maintenance medium to make the final concentration being 0.1 ppm, 1 ppm, 5 ppm, 10 ppm and 20 ppm, respectively. After 2 hours of pretreatment with ligand-modified CuNCs, the different groups of cells were added with MPP^+ (final concentration is 1 mM). […] Then the cells were cultured at 37° C. for 24 h. After centrifugation to remove the culture medium, 100 μL maintenance medium containing 10% CCK-8 were added to each well, and then incubate for 4 h. The absorbance of each well was then measured at 450 nm. The absorbance could reflect the pre-protective and curative effects of ligand-modified CuNCs against MPP^+ lesion.

α-syn = biological target: T1, α-syn (Homo sapiens, UniProt P37840); assay: α-syn aggregation kinetics, ThT fluorescent labeling; format: biochemical; conditions: 35 μM α-syn, 5 ppm CuNCs or ligand alone, 37° C., 70 hours
T1 construct: purchased Bachem Corp
Experimental: CuNCs modified with different ligands were prepared according to literatures. Thioflavin T (abbreviation: ThT) is a highly sensitive fluorescent marker used to identify the presence of amyloid. […] When ThT encounters amyloid polypeptide or protein with a fiber structure, it will immediately adjacent to the amyloid polypeptides or proteins and its fluorescence intensity will increase exponentially. Therefore, ThT is widely used as a maker to monitor amyloidosis of peptides or proteins. This embodiment adopts ThT fluorescent labeling method to monitor the kinetics process of fibrosis aggregation of α-syn in the presence of CuNCs. The specific experiment method is as follows.
Pretreatment of α-syn monomers: Dissolve freeze-dried α-syn powder (Bachem Corp.) in HFIP to obtain a 1 g/L α-syn solution. […]
Sample preparation and detection: Add ligand modified CuNCs to α-syn PBS solution to reach final concentrations of 5 ppm and 35 μM for CuNCs and α-syn, respectively. Incubate the solution continuously in a 96-well plate at 37° C., monitor the fluorescence intensity by microplate reader every 10 minutes, and characterize the kinetics process of α-syn aggregation through the change of fluorescence intensity of ThT. […]

RGC-5 cells = assay: H2O2-induced glaucoma cell (RGC-5) model, CCK-8 cell viability; format: cell-based; conditions: 20 ppm of GSH and 100 μM of H2O2, 24 hours
Experimental: RGC-5 cells in logarithmic growth phase were diluted with complete medium (DMEM medium+10% FBS+1% penicillin-streptomycin) into a cell suspension with a density of 5×10^4/mL, inoculated with 100 μL per well in 96-well plates. The cells were cultured at 37° C. in a 5% CO2 incubator. After the cells were attached, the original culture solution was discarded, and 50 μL of different concentrations of CuNCs prepared from maintenance medium (DMEM medium+2% FBS+1% penicillin-streptomycin) were added to different wells. The final concentrations were 0.5, 5 and 20 ppm respectively (i.e. groups 5, 6, 7 respectively in FIG. 19). After pretreatment for 2 h, about 50 μL of H2O2 (final concentration of 105 μM) was added. The cells were incubated for 24 h, and 10% CCK-8 was added to each well for 4 h. The absorbance values of the respective wells were measured at the wavelength of 450 nm to evaluate the protection effect of CuNCs against H2O2-induced damages. In the above experiments, provided were a blank control group in which cells were not treated, a model control group in which cells were treated with 105 μM H2O2, a CuNCs control group in which 100 ppm of CuNCs were added but no H2O2 was added, and a ligand control group in which 20 ppm ligand and 105 μM H2O2 were added (i.e. groups 1, 2, 3, 4 respectively in FIG. 19).

N[C@@H](CCC(=O)N[C@@H](CS)C(=O)NCC(=O)O)C(=O)O [GSH, L-glutathione]
cell viability, ligand control group (SH-sy5y cells): 56.9±3.4%
α-syn aggregation and fibrosis (ThT fluorescence intensity) (α-syn): does not have an obvious effect
cell viability, ligand control group (RGC-5 cells): 56.5±5.9%
